Data from patent publication US20260097091A1, “ADMINISTRATION OF GLUTATHIONE TRISULFIDE TO AMELIORATE PERIPHERAL NEUROPATHY” (The General Hospital Corporation, priority 2022, published 2026).

What was measured:
Format in all cases: in vivo, mice (C57BL/6J)
mouse model of PIPN [1] = experiment: von Frey test of mechanical allodynia in mouse model of paclitaxel-induced peripheral neuropathy
From the text: (§1) All animal protocols were approved by the Massachusetts General Hospital Institutional Animal Care and Use Committee. Animals were cared for in accordance with the guidelines established by the NIH and the International Association for the Study of Pain [16]. Male C57BL/6J mice (6-7 weeks old) were purchased from the Jackson Laboratory (Bar Harbor, ME, USA). The mice were housed in a 12-hour shift light-control environment from 7 am to […] with ad libitum access to food and water in our animal facility until the time of experiments.
(§2) Paclitaxel (Sigma-Aldrich) was dissolved with ethanol and cremophor (1:1) and diluted with normal saline (1:4). Peripheral neuropathy was induced in mice by intraperitoneal (i.p.) administration of 4 mg/kg paclitaxel every other day for a total of 4 injections (cumulative dose of 16 mg/kg), according to a previously described protocol. A stable, crystallized form of GSSSG was produced and provided by Kyowa Hakko Bio CO., LTD. GSSSG was pulverized and mixed in 0.5% methylcellulose. […] The dose of GSSSG was determined based on pilot studies. […]
Mechanical withdrawal thresholds were measured by the manual von Frey filament test to assess mechanical allodynia. […] The 50% threshold of a paw withdrawal response was calculated by the Up-down Reader based on the up and down method. […]

mouse model of PIPN [2] = experiment: hot plate test of thermal hyperalgesia in mouse model of PIPN
From the text: as §1
as §2, with “LTD.” for “LTD. GSSSG was pulverized and mixed in 0.5% methylcellulose.”
To assess hyperalgesia, the heat threshold was determined by the hot plate test. […] The test was repeated 2 times after 5 minutes interval by a blinded examiner, and the average time was calculated. The ratio of change from the baseline was calculated from the difference of the latency response time from the baseline divided by the baseline time. […]

[3] = system: intraepidermal nerve fibers of hind paws; experiment: density of intraepidermal nerve fibers in hind paw skin (immunohistochemistry); conditions: for density of intraepidermal nerve fibers: paclitaxel alone
Description: Paclitaxel (Sigma-Aldrich) was dissolved with ethanol and cremophor (1:1) and diluted with normal saline (1:4). Peripheral neuropathy was induced in mice by intraperitoneal (i.p.) administration of 4 mg/kg paclitaxel every other day for a total of 4 injections (cumulative dose of 16 mg/kg), according to a previously described protocol. A stable, crystallized form of GSSSG was produced and provided by Kyowa Hakko Bio CO., LTD. GSSSG was pulverized and mixed in 0.5% methylcellulose. To evaluate the therapeutic effects of GSSSG in a model of PIPN, mice were randomly divided into three groups of 6. Mice were treated with: 1) paclitaxel alone; 2) paclitaxel and GSSSG; 3) or vehicle alone (control). Mice in groups 1 and 2 received paclitaxel as described above, while mice in the control group received the same volume of vehicle. The first dose of GSSSG was given within 1 hour after the first PTX injection. Treatment was administered as oral gavage for 28 days with GSSSG at 50 mg/kg/day (group 2) or 0.5% methylcellulose (groups 1 and 3). The dose of GSSSG was determined based on pilot studies. To determine the effect of GSSSG on the development of PIPN, behavioral tests to assess allodynia and hyperalgesia were conducted on all mice on days-1 (baseline), 7, 14, 21, and 28 after paclitaxel administration. Behavioral tests were performed by an investigator who was blinded to the treatment groups, as described in the next section. Density of intraepidermal nerve fiber (fibers/mm) of hind paws was calculated to evaluate peripheral nerve fiber damage by paclitaxel. Mice were deeply anesthetized with Isoflurane (4%) and euthanized by exsanguination on week 1 or week 4 after paclitaxel treatment for tissue harvest. […] Ten images per mouse (6 mice per group) were taken by fluorescence microscopy (Nikon Eclipse 80i, Nikon Instruments, Inc., Melville, NY), and four out of ten images were randomly selected. The density (fibers/mm basement membrane) was calculated as the number of intraepidermal nerve fiber divided by the length of basement membrane in accordance with the guideline.

| thermal hyperalgesia (hot plate test) (mouse model of PIPN [2]; paclitaxel 4 mg/kg i.p. every other day, 4 injections, 4 weeks, vs control) | density of intraepidermal nerve fibers ([3]; 1 week after starting paclitaxel) | Compound | mechanical allodynia (von Frey test) (mouse model of PIPN [1]; GSSSG 50 mg/kg/day oral for 28 days in paclitaxel-treated mice, vs paclitaxel alone) | threshold for thermal hyperalgesia (hot plate test) (mouse model of PIPN [2]; GSSSG 50 mg/kg/day oral in paclitaxel-treated mice) | paclitaxel-induced loss of intraepidermal nerve fibers ([3]; daily oral 50 mg/kg GSSSG in paclitaxel-treated mice, 4 weeks after starting paclitaxel) | paw withdrawal threshold (von Frey test) (mouse model of PIPN [1]; paclitaxel 4 mg/kg i.p. every other day, 4 injections, week 1 through week 4, vs control mice) | density of intraepidermal nerve fibers ([3]; 4 weeks after starting paclitaxel) |
| --- | --- | --- | --- | --- | --- | --- | --- |
|  |  | N[C@@H](CCC(=O)N[C@@H](CSSSC[C@H](NC(=O)CC[C@H](N)C(=O)O)C(=O)NCC(=O)O)C(=O)NCC(=O)O)C(=O)O [GSSSG, glutathione trisulfide] | mitigated mechanical allodynia over the experimental period | not altered | prevented paclitaxel-induced loss of intraepidermal nerve fibers |  |  |
| induced thermal hyperalgesia | not at 1 week | CC(=O)O[C@H]1C(=O)[C@@]2(C)[C@H]([C@H](OC(=O)c3ccccc3)[C@]3(O)C[C@H](OC(=O)[C@H](O)[C@@H](NC(=O)c4ccccc4)c4ccccc4)C(C)=C1C3(C)C)[C@]1(OC(C)=O)CO[C@@H]1C[C@@H]2O [paclitaxel, Paclitaxel, reference compound] |  |  |  | significantly lower paw withdrawal threshold than control mice | decreased the density of intraepidermal nerve fibers at 4 weeks |
